Experimental data: paper PMC7073886, “Structure–Bioactivity Relationships of Lapatinib Derived Analogs against Schistosoma mansoni” (ACS Medicinal Chemistry Letters, 2020)
Converted amounts (≈) assume the structure as drawn. Like-named read-outs stand apart in the source and are kept apart here.

Tests used:
[1] = test system: adult S. mansoni; experiment: Phenotypic screen of adult S. mansoni worms, severity scores and descriptors; assay type: cell-based, Schistosoma mansoni; conditions: for Descriptors (10 µM) 1 h / Severity Scores (10 μM) 1 h / Descriptors (10 µM) 5 h / Severity Scores (10 μM) 5 h / Descriptors (10 µM) 24 h / Severity Scores (10 μM) 24 h / Descriptors (10 µM) 48 h / Severity Scores (10 μM) 48 h: adult S. mansoni; for Descriptors (10 µM) 1 h / Descriptors (10 µM) 5 h / Descriptors (10 µM) 24 h / Descriptors (10 µM) 48 h: phenotypic descriptors; for Severity Scores (10 μM) 1 h / Severity Scores (10 μM) 5 h / Severity Scores (10 μM) 24 h / Severity Scores (10 μM) 48 h: scale 0 (no activity) to 4 (maximal activity); for bioactivity against adult S. mansoni: adult schistosomes; for Severity Scores (10 μM) 1 h / Severity Scores (10 μM) 5 h / Severity Scores (10 μM) 24 h / Severity Scores (10 μM) 48 h / bioactivity against adult S. mansoni: 10 μM
Summary of the method: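 Adult S. mansoni (NMRI isolate, ≥42 days old) were co-incubated with compounds and changes in motility, density, shape and adherence recorded visually over time and concentration. Descriptors converted to severity scores from 0 (no activity) to 4 (maximal).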

[2] = test system: HepG2 cells; experiment: Drug toxicity to HepG2 cells (MTT); assay type: cell-based; conditions: for HepG2 TC50: HepG2 cells, 48 hours incubation, MTT; for increase in toxicity against HepG2 cells compared with 3: relative to 3
[3] = Aqueous pH 7.4 solubility; assay type: physicochemical; conditions: for solubility: phosphate buffer pH 7.4, 25 °C, 20-24 h, read-out: aq sol (aqueous solubility)
[4] = Human plasma protein binding (equilibrium dialysis); assay type: in vitro ADME; conditions: for human PPB (plasma protein binding): 10 µM; for fraction unbound at 10 µM: pH 7.4, 37 °C
[5] = Human liver microsomal Clint; assay type: in vitro ADME; conditions: for HLM Clint / microsomal CLint: human liver microsomes, intrinsic clearance; for microsomal CLint: read-out: HLM Clint
[6] = Rat hepatocyte Clint; assay type: in vitro ADME; conditions: rat hepatocytes, intrinsic clearance; for hepatocyte CLint: read-out: RH CLint
[7] = Log D7.4 shake-flask octanol-water; assay type: physicochemical; conditions: pH 7.4
[8] = aqueous buffer, thermodynamic from solid
[9] = read-out: human PPB (plasma protein binding) (converted)

| SMILES | Descriptors (10 µM) 1 h [1] | Severity Scores (10 μM) 1 h [1] | Descriptors (10 µM) 5 h [1] | Severity Scores (10 μM) 5 h [1] | Descriptors (10 µM) 24 h [1] | Severity Scores (10 μM) 24 h [1] | Descriptors (10 µM) 48 h [1] | Severity Scores (10 μM) 48 h [1] | HepG2 TC50 [2] [µM] | solubility [3] [µM] | human PPB (plasma protein binding) ([4]; 37 °C) [%] | HLM Clint [5] [μL/min/mg protein] | RH CLint [6] [µL/min/10^6 cells] | LogD 7.4 [7] | bioactivity against adult S. mansoni [1] | hepatocyte CLint [6] [µL/min/1e6 cells] | logD [7] | also measured |
| --- | --- | --- | --- | --- | --- | --- | --- | --- | --- | --- | --- | --- | --- | --- | --- | --- | --- | --- |
| O=S(=O)(c1ccc(-c2ccc3nccc(N[C@@H]4CCCC[C@H]4O)c3c2)cc1)N1CCOCC1 (relative stereo) [S3d] | none | 0 | none | 0 | none | 0 | none | 0 | 32 | 140 (≈ 65.5 µg/mL) | 72 | 43 | 30 | 2.4 | – | – | – | – |
| Cc1cnc(Nc2ccnc3cc(-c4cnc(N5CCN(C)CC5)nc4)ccc23)cn1 [5a] | – | 1 | – | 4 | – | 4 | – | 4 | – | – | – | – | – | – | severe phenotypic response after just 5 h | 150 | 3.6 | increase in toxicity against HepG2 cells compared with 3 [2]: greater than 1.9 fold; solubility [3, 8]: 13 µM (≈ 5.36 µg/mL); fraction unbound at 10 µM [4, 9]: 0.07; microsomal CLint [5]: 240 µL/min/mg |
| COc1ccc(NC(=O)c2ccc(-c3cccc(N4CCOCC4)c3)cc2N)cc1Cl [7e] | none | 0 | none | 0 | S, on sides | 2 | – | 2 | – | – | – | – | – | – | bioactivity after 24 h | 4.4 | 3.6 | solubility [3, 8]: 0.6 µM (≈ 0.263 µg/mL); fraction unbound at 10 µM [4, 9]: < 0.01; microsomal CLint [5]: 59 µL/min/mg |
| Cc1cc2c(Nc3cnccn3)ccnc2cc1-c1cnc(N2CCN(C)CC2)nc1 [8a] | Unc, on sides | 2 | – | – | – | 4 | – | 4 | – | – | – | – | – | – | severe phenotypic response by 5 h | – | 3.3 | increase in toxicity against HepG2 cells compared with 3 [2]: greater than 5 fold; decrease in aqueous solubility compared with 3 ([3]; relative to 3): > 2200 fold |
| Cc1cc2c(Nc3cnccn3)ccnc2cc1-c1cnc(N2CCCN(C)CC2)nc1 [8b] | – | 4 | – | 4 | – | 4 | – | 4 | – | – | – | – | – | – | severe phenotypic response recorded after 1 h | 42 | 2.5 | improvement in solubility compared to 8a ([3]; relative to 8a): > 33,500 fold; fraction unbound ([4]; pH 7.4, 10 µM, 37 °C, read-out: human PPB (plasma protein binding) (converted)): 0.18; clearance increase compared to 8a ([5]; relative to 8a): 2 fold |
| C[S+]([O-])CCNc1ncc(-c2ccc3c(Nc4cnccn4)ccnc3c2)cn1 (stereo not shown) [S2b] | none | 0 | none | 0 | none | 0 | – | – | > 37 | 11 (≈ 4.46 µg/mL) | – | 6 | 7.6 | 1.7 | – | – | – | – |
| CN(C)CCN(C)c1ncc(-c2ccc3c(Nc4cnccn4)ccnc3c2)cn1 [S2c] | none | 0 | none | 0 | none | 0 | none | 0 | > 38 | 630 (≈ 252 µg/mL) | – | 45 | 55 | 2.3 | – | – | – | – |
| CN1CCC(Nc2ccnc3ccc(-c4ccc(S(=O)(=O)N5CCOCC5)cc4)cc23)CC1 [S3c] | none | 0 | none | 0 | none | 0 | none | 0 | 26 | 790 (≈ 369 µg/mL) | 58 | 23 | 3.7 | – | – | – | – | – |
| CN1CCCN(c2ccc(Nc3ccc4c(Nc5cnccn5)ccnc4c3)cc2)CC1 [S3k] | none | 0 | none | 0 | S, on sides | 2 | S, on sides | 2 | 17 | – | – | – | – | – | – | 14 | – | microsomal CLint [5]: 30 µL/min/mg |
| C[C@@H]1CNCCN1C(=O)c1ccc(-c2cnc(N3CCCN(C)CC3)nc2)cc1N [S4c] | none | 0 | none | 0 | none | 0 | – | – | > 37 | 930 (≈ 381 µg/mL) | 42 | – | 2.6 | -0.4 | – | – | – | – |
| C[C@@H]1CNCCN1C(=O)c1ccc(-c2cccc(N3CCOCC3)c2)cc1N [S4d] | none | 0 | none | 0 | none | 0 | none | 0 | > 40 | 950 (≈ 361 µg/mL) | 63 | – | – | 1 | – | – | – | – |
